Source: patent US20190255073A1, “ESTERS OF 3-POLYAMINE DERIVATIVES OF BILE ACIDS FOR THE TREATMENT OF INFECTIONS” (VIRBAC, priority 2016, published 2019)
Converted amounts (≈) assume the structure as drawn. Where two headings read alike, the source gives them in different places.

Columns and labels:
E. coli ATCC28922 = assay: MIC determination by microplate dilution, E. coli human strain; format: cell-based, Escherichia coli; conditions: Escherichia coli, ATCC28922, Gram-negative, Mueller-Hinton medium, 24 h, 37° C.
Procedure: (§1) 1) Preparation of the Preculture
(§2) A negative control (2 mL of sterile culture medium)
(§3) A positive control (1940 μL of culture medium+40 μL of DMSO+20 μL of bacterial suspension) from a thawed biological strain (the biological strains are stored at −80° C. in glycerol).
(§4) The tubes were incubated at 37° C. for 24 hours at 100 rpm.
(§5) The microorganisms were handled under a type L2 laboratory fume cupboard and, before any handling, a UV cycle was programmed and only sterile material was used. […] The chemical compounds to be tested were prepared in a DMSO/methanol mixture (50/50) at a concentration of 5 mg/mL.
(§6) 2) Preparation of the Microplate for the Determination of the Minimum Inhibitory Concentration (MIC)
(§7) After 24 hours of incubation, a measurement of the optical density was taken using a spectrophotometer at 600 nm, collecting 100 μL of the bacterial suspension diluted in 900 μL of the sterile culture medium. This test required the use of a 96-well plate and the required volume of the microbial suspension to be seeded was calculated for an OD corresponding to a value equal to 0.01 in each well. In this plate, the first line corresponded to the negative control (195 μL of sterile culture medium in each well), the second line to the positive control (seeded culture medium supplemented with 2% of DMSO), the third line was loaded twice with bacterial suspension, 8 μL of test product were placed in each well. Thereafter, a 0.5 cascade dilution was performed from this line.
(§8) The first column served as inhibition control. A sterile filter was then placed on the microplate, allowing the passage of gases but not of contaminants. The microplate was incubated at 37° C. under a humid atmosphere for 24 hours.
(§9) NB: The medium used is Mueller-Hinton (MH) medium for bacteria. All the tests were performed in duplicate.
(§10) 4) Reading of the Results
(§11) After incubation, the filter was replaced with a transparent film, and an OD reading was then taken in an iEMS plate spectrophotometer at 620 nm. Calculation of the minimum inhibitory concentration (MIC) was performed.

CHO-K1 cells = assay: WST1 cytotoxicity test on CHO-K1 cells; format: cell-based, Chinese hamster; conditions: Cricetulus griseus, read-out: IC50 (μg/mL) CHO
Procedure: Test WST1 was used to measure the cytotoxic activity of the products. This is a colorimetric test which makes it possible to measure the viability and the degree of cell proliferation. It is based on cleavage of the colorless tetrazolium salts WST-1 (4-[3-(4-iodophenyl)-2-(4-nitrophenyl)-2H-5-tetrazolio]-1,3-benzene disulfonate) with mitochondrial dehydrogenases to the yellow-colored formazan derivative, which may be quantified by spectrophotometry at 420-480 nm.
The WST1 test was performed on Chinese hamster ovary cells. The CHO-K1 cells (ATCC, USA) are kept in culture on McCoy's 5A medium supplemented with 10% fetal calf serum, 2 mM of L-glutamine and a mixture of penicillin-streptomycin (100 U/ml: 10 μg/mL). The culture is incubated at 37° C. under an atmosphere enriched in CO2 (5%), and subcultured every two days.
The cells are transferred into 96-well plates (25 000 cells/mL) in whole McCoy's 5A medium, and maintained for 24 hours at 37° C. under a humid atmosphere enriched in CO2 (5%). Increasing concentrations of test products are added to the wells in double tests and 8 growth controls containing the cells in the medium alone are included in each series of tests. After 24 hours at 37° C. (5% CO2), the culture medium is removed, the cells are rinsed in phosphate buffer (PBS) and 50 μL of PBS containing 10% of reagent WST1 are added to each well. After 20 minutes of incubation at 37° C., the results are read by spectrophotometry at 450 nm.
The results are expressed in dose-response relationships, modeled by nonlinear regression analysis using the TableCurve software. The 50% inhibitory concentration (IC50) represents the concentration of product that is capable of reducing the cell viability by 50%.

E. coli (1956) = assay: MIC determination by microplate dilution, E. coli animal strain; format: cell-based, Escherichia coli; conditions: Escherichia coli, Gram-negative, Mueller-Hinton medium, 24 h, 37° C.
Procedure: as §1, §2, §3, §4, §5, §6, §7, §8, §9, §10, §11

S. aureus (340) = assay: MIC determination by microplate dilution, S. aureus animal strain; format: cell-based, Staphylococcus aureus; conditions: Staphylococcus aureus, Gram-positive, Mueller-Hinton medium, 24 h, 37° C.
Procedure: as §1, §2, §3, §4, §5, §6, §7, §8, §9, §10, §11

S. intermedius (1051997) = assay: MIC determination by microplate dilution, S. intermedius animal strain; format: cell-based, Staphylococcus intermedius; conditions: Staphylococcus intermedius, Gram-positive, Mueller-Hinton medium, 24 h, 37° C.
Procedure: as §1, §2, §3, §4, §5, §6, §7, §8, §9, §10, §11

P. aeruginosa (1051575) [1] = assay: Potentiation of the doxycycline activity at 2 μg/mL; format: cell-based, Pseudomonas aeruginosa; conditions: in combination with doxycycline 2 μg/mL; 24 h, 37°
P. aeruginosa (1051575) [2] = assay: MIC determination by microplate dilution, P. aeruginosa animal strain; format: cell-based, Pseudomonas aeruginosa; conditions: Pseudomonas aeruginosa, Gram-negative, Mueller-Hinton medium, 24 h, 37° C.
Procedure: as §1, §2, §3, §4, §5, §6, §7, §8, §9, §10, §11

P. aeruginosa ATCC27853 = assay: MIC determination by microplate dilution, P. aeruginosa human strain; format: cell-based, Pseudomonas aeruginosa; conditions: Pseudomonas aeruginosa, ATCC27853, Gram-negative, Mueller-Hinton medium, 24 h, 37° C.
Procedure: as §1, §2, §3, §4, §5, §6, §7, §8, §9, §10, §11

S. aureus ATCC25923 = assay: MIC determination by microplate dilution, S. aureus human strain; format: cell-based, Staphylococcus aureus; conditions: Staphylococcus aureus, ATCC25923, Gram-positive, Mueller-Hinton medium, 24 h, 37° C.
Procedure: as §1, §2, §3, §4, §5, §6, §7, §8, §9, §10, §11

E. faecalis ATCC29212 = assay: MIC determination by microplate dilution, E. faecalis human strain; format: cell-based, Enterococcus faecalis; conditions: Enterococcus faecalis, ATCC29212, Gram-positive, Mueller-Hinton medium, 24 h, 37° C.
Procedure: as §1, §2, §3, §4, §5, §6, §7, §8, §9, §10, §11

[3] = Table III, WST1, CHO-K1 cells, 24 h, concentration reducing cell viability by 50%

Row | Compound | MIC (E. coli ATCC28922) [µg/mL] | IC50 (CHO-K1 cells; CHO-K1, 24 h) [µg/mL] | MIC (E. coli (1956)) [µg/mL] | MIC (S. aureus (340)) [µg/mL] | MIC (S. intermedius (1051997)) [µg/mL] | MIC - P. aeruginosa (1051575): content of compound of formula (I) to restore the doxycycline activity (at 2 μg/mL) (P. aeruginosa (1051575) [1]) [µg/mL] | MIC (P. aeruginosa (1051575) [2]) [µg/mL] | MIC (P. aeruginosa ATCC27853) [µg/mL] | MIC (S. aureus ATCC25923) [µg/mL] | MIC (E. faecalis ATCC29212) [µg/mL] | IC50 (CHO-K1 cells; [3]) [µg/mL]
1 | COC(=O)CC[C@@H](C)[C@H]1CCC2C3CCC4C[C@@H](NCCCNCCCN)CC[C@]4(C)C3CC[C@@]21C (stereo partly drawn) [(18), methyl 3β-norspermidinolithocholate] | 32 (≈ 63.5 µM) | 80 (≈ 159 µM) | 3 (≈ 5.95 µM) | 0.7 (≈ 1.39 µM) | 0.7 (≈ 1.39 µM) | 3 | 3 (≈ 5.95 µM) |  |  |  | 
2 | CC(C)OC(=O)CC[C@@H](C)[C@H]1CCC2C3C(CC[C@@]21C)[C@@]1(C)CC[C@H](NCCNCCNCCNCCNCCN)CC1C[C@H]3O (stereo partly drawn) [(23), isopropyl 3β-(pentaethylenehexamine)chenodeoxycholate] | 16 (≈ 24.7 µM) |  | 32 (≈ 49.3 µM) | 16 (≈ 24.7 µM) | 8 (≈ 12.3 µM) | 8 | 64 (≈ 98.6 µM) | 64 (≈ 98.6 µM) | 16 (≈ 24.7 µM) | 16 (≈ 24.7 µM) | 
3 | CC(C)OC(=O)CC[C@@H](C)[C@H]1CCC2C3C(CC[C@@]21C)[C@@]1(C)CC[C@H](NCCNCCNCCNCCNCCN)CC1C[C@@H]3O (stereo partly drawn) [(24), isopropyl 3β-(pentaethylenehexamine)ursodeoxycholate] |  |  | 65 (≈ 100 µM) | 32 (≈ 49.3 µM) | 8 (≈ 12.3 µM) |  | 130 (≈ 200 µM) |  |  |  | 
4 | COC(=O)CC[C@@H](C)[C@H]1CCC2C3CCC4C[C@@H](NCCNCCNCCNCCNCCN)CC[C@]4(C)C3CC[C@@]21C (stereo partly drawn) [(25), methyl 3β-(pentaethylenehexamine)lithocholate] | 30 (≈ 49.6 µM) |  | 30 (≈ 49.6 µM) | 8 (≈ 13.2 µM) | 4 (≈ 6.61 µM) |  | 60 (≈ 99.2 µM) | 60 (≈ 99.2 µM) | 8 (≈ 13.2 µM) | 15 (≈ 24.8 µM) | 76 (≈ 126 µM)
5 | COC(=O)CC[C@@H](C)[C@H]1CCC2C3C(C[C@H](O)[C@@]21C)[C@@]1(C)CC[C@H](NCCCN(C)CCCN)C[C@H]1C[C@H]3O (stereo partly drawn) [(33), methyl 3β-(bis(3-aminopropyl)methylamine)cholate] | 27 (≈ 49.1 µM) |  | 50 (≈ 90.9 µM) | 14 (≈ 25.5 µM) | 14 (≈ 25.5 µM) |  | 50 (≈ 90.9 µM) | 27 (≈ 49.1 µM) | 14 (≈ 25.5 µM) | 14 (≈ 25.5 µM) | 126 (≈ 229 µM)
6 | CC(C)OC(=O)CC[C@@H](C)[C@H]1CCC2C3C(C[C@H](O)[C@@]21C)[C@@]1(C)CC[C@H](NCCN(CCN)CCN)CC1C[C@H]3O (stereo partly drawn) [(35), isopropyl 3β-(tris(2-aminoethyl)amine)cholate] | 28 (≈ 48.4 µM) |  | 56 (≈ 96.7 µM) |  | 14 (≈ 24.2 µM) | 7 | 56 (≈ 96.7 µM) | 56 (≈ 96.7 µM) | 28 (≈ 48.4 µM) | 28 (≈ 48.4 µM) | 
7 | CC(C)OC(=O)CC[C@@H](C)[C@H]1CCC2C3C(CC[C@@]21C)[C@@]1(C)CC[C@H](NCCCN(CCCN)CCCN)CC1C[C@@H]3O (stereo partly drawn) [(42), isopropyl 3β-(tris(3-aminopropyl)amine)ursodeoxycholate] |  |  | 120 (≈ 198 µM) | 30 (≈ 49.6 µM) | 15 (≈ 24.8 µM) | 4 | 60 (≈ 99.2 µM) |  |  |  | 
8 | COC(=O)CC[C@@H](C)[C@H]1CCC2C3CCC4C[C@@H](NCCCN(C)CCCN)CC[C@]4(C)C3CC[C@@]21C (stereo partly drawn) [(45), methyl 3β-(bis(3-aminopropyl)methylamine)lithocholate] | 26 (≈ 50.2 µM) |  | 6 (≈ 11.6 µM) | 6 (≈ 11.6 µM) | 3 (≈ 5.79 µM) |  | 26 (≈ 50.2 µM) | 26 (≈ 50.2 µM) | 12 (≈ 23.2 µM) | 12 (≈ 23.2 µM) | 46 (≈ 88.8 µM)
9 | COC(=O)CC[C@@H](C)[C@H]1CCC2C3CCC4C[C@@H](NCCCN(CCCN)CCCN)CC[C@]4(C)C3CC[C@@]21C (stereo partly drawn) [(46), methyl 3β-(tris(3-aminopropyl)amine)lithocholate] | 56 (≈ 99.8 µM) |  | 28 (≈ 49.9 µM) | 7 (≈ 12.5 µM) | 4 (≈ 7.13 µM) |  | 28 (≈ 49.9 µM) | 28 (≈ 49.9 µM) | 14 (≈ 25 µM) | 14 (≈ 25 µM) | 30 (≈ 53.5 µM)
10 | COC(=O)CC[C@@H](C)[C@H]1CCC2C3C(CC[C@@]21C)[C@@]1(C)CC[C@H](NCCCN(CCCN)CCCN)CC1C[C@@H]3O (stereo partly drawn) [(52), methyl 3β-(tris(3-aminopropyl)amine)ursodeoxycholate] | 30 (≈ 52 µM) |  | 30 (≈ 52 µM) | 14 (≈ 24.3 µM) |  | 7 | 30 (≈ 52 µM) | 14 (≈ 24.3 µM) | 14 (≈ 24.3 µM) | 30 (≈ 52 µM) | 
11 | COC(=O)CC[C@@H](C)[C@H]1CCC2C3C(C[C@H](O)[C@@]21C)[C@@]1(C)CC[C@H](NCCCNCCCN)C[C@H]1C[C@H]3O (stereo partly drawn) [Compound (5), methyl 3β-norspermidinocholate] | 14 (≈ 26.1 µM) |  | 27 (≈ 50.4 µM) | 7 (≈ 13.1 µM) | 2 (≈ 3.73 µM) |  |  | 7 (≈ 13.1 µM) | 3 (≈ 5.6 µM) | 3 (≈ 5.6 µM) | 
12 | COC(=O)CC[C@@H](C)[C@H]1CCC2C3C(CC[C@@]21C)[C@@]1(C)CC[C@H](NCCCNCCCNCCCN)CC1C[C@H]3O (stereo partly drawn) [Compound (8), methyl 3β-norsperminochenodeoxycholate] | 15 (≈ 26 µM) | 22 (≈ 38.1 µM) | 29 (≈ 50.3 µM) | 4 (≈ 6.93 µM) | 2 (≈ 3.47 µM) | 1 | 7 (≈ 12.1 µM) |  | 4 (≈ 6.93 µM) |  | 
13 | CC(C)OC(=O)CC[C@@H](C)[C@H]1CCC2C3CCC4C[C@@H](NCCCNCCCNCCCN)CC[C@]4(C)C3CC[C@@]21C (stereo partly drawn) [Compound (15), isopropyl 3β-norsperminolithocholate] | 14 (≈ 23.8 µM) | 15 (≈ 25.5 µM) | 7 (≈ 11.9 µM) | 7 (≈ 11.9 µM) | 1 (≈ 1.7 µM) | 2 | 2 (≈ 3.4 µM) |  | 7 (≈ 11.9 µM) |  | 
14 | COC(=O)CC[C@@H](C)[C@H]1CCC2C3CCC4C[C@@H](NCCCNCCCNCCCN)CC[C@]4(C)C3CC[C@@]21C (stereo partly drawn) [Compound (17), methyl 3β-norsperminolithocholate] | 28 (≈ 49.9 µM) |  | 7 (≈ 12.5 µM) | 4 (≈ 7.13 µM) | 4 (≈ 7.13 µM) |  | 7 (≈ 12.5 µM) | 28 (≈ 49.9 µM) | 16 (≈ 28.5 µM) | 4 (≈ 7.13 µM) | 14 (≈ 25 µM)
